Source: patent publication US20250197368A1 (priority 2020, published 2025)

Key:
[1] = target: human α2β3γ2 GABAARs (benzodiazepine site) (Homo sapiens (Human), UniProt P18507+P47869); assay: In vitro radioligand binding assay ([3H]Ro15-1788 displacement), α2-GABAAR Ki
Method: The affinity (Ki) of compounds for the benzodiazepine site of human recombinant GABAARs was measured by their ability to inhibit the binding of the selective benzodiazepine antagonist [^3H]Ro15-1788 ([^3H] flumazenil).
Mouse L(tk^−) cells stably expressing human α1β3γ2, α2β3γ2, α3β3γ2, α5β3γ2 GABAARs were generated by transfection of the individual subunits in the dexamethasone-inducible expression vector pMSGneo in mouse L(tk^−) cells (Hadingham et al., 1993, Mol. Pharmacol. 43:970-975 and 1993, Mol. Pharmacol. 44:1211-1218).
L(tk^−) cells stably expressing human α1β3γ2, α2β3γ2, α3β3γ2, α5β3γ2 GABAARs were maintained in DMEM F12 medium supplemented with 10% Foetal Bovine Serum, 1% Penicillin/Streptomycin and 1 mg/mL Geneticin G418 in an incubator at 37° C. with a humidified atmosphere with 5% CO2. Dexamethasone was added to the culture medium to induce GABAAR expression.
L(tk−) cells were harvested and membranes were prepared for each receptor combination in either TE buffer (10 mM Tris·CI/0.1 mM EDTA, pH 7.5) or phosphate buffer (K2PO4 10 mM, pH 7.0) (Hadingham et al. (1992) Proc. Natl. Acad. Sci. USA; 89 (14): 6378-82). Protein concentration, receptor expression and the Kd of [^3H]Ro15-1788 were determined before Ki value of the compounds were evaluated. For Kd evaluation, saturation binding curves were obtained by incubating membrane with various concentrations of [^3H]Ro15-1788 (82.5 Ci/mM), with nonspecific binding measured in the presence of 1-3 μM TP003.
For Ki evaluation, cell membranes were incubated with 4 nM [^3H]Ro15-1788 along with a range of concentrations of test compound. Nonspecific binding was determined using 1-3 μM TP003. All incubations were performed for 1 hour at 4° C. in assay buffer. The total assay volume was 0.5 mL, containing 40 μg/well α1β3γ2, 30 μg/well α2β3γ2, 40 μg/well α3β3γ2 and 30 μg/well for α5β3γ2 of membrane protein. Incubations were terminated by filtration and washing with ice cold Tris-HCl buffer (50 mM, pH=7.4) over Whatman GF/B filters and the radioactivity of the filters was measured using liquid scintillation counting.
The % inhibition of [^3H]Ro15-1788 binding was plotted as a function of compound concentration and the IC50 calculated. From the IC50, the affinity (Ki) was calculated using the method of Cheng and Prusoff using the Kd values obtained for [^3H]Ro15-1788.

human α2β3γ2 GABAARs = assay: In vitro electrophysiological recording assay (automated patch-clamp), α2-GABAAR relative efficacy; assay type: cell-based; details: % efficacy normalised to diazepam; GABA EC10-20; concentration generally >= 100 times Ki
Method: The efficacy of modulators was evaluated using the automated patch-clamp platforms QPatch16 (Sophion, Copenhagen, Denmark) or SyncroPatch 384PE (Nanion, Germany).
For QPatch electrophysiology testing L(tk^−) cells stably expressing human α1β3γ2, α2β3γ2, α3β3γ2, α5β3γ2 GABAARs were used. HEK293 cells stably expressing human α1β3γ2L, α2β3γ2L, α3β3γ2L and α5β3γ2L GABAARs were used for the SyncroPatch 384PE experiments.
All experiments were carried out at room temperature (20-22° C.) using a standard whole cell procedure and physiological solutions. Gigaseals were formed upon execution of a combined suction/voltage protocol with subsequent increased suction leading to the whole-cell configuration.
The currents recorded were acquired at either 1 KHz or 2 KHz and filtered using a Bessel filter. Whole-cell currents were measured at a holding potential of-65 mV (QPatch) or −80 mV (SyncroPatch).
For QPatch experiments, the extracellular solution contained of: 145 mM NaCl, 4 mM KCl, 1 mM MgCl2, 2 mM CaCl2), 10 mM HEPES, 10 mM D-glucose (pH 7.4), and the intracellular solution consisted of: 96 mM KCl, 28 mM CsCl, 25 mM KOH, 4.3 mM CaCl2), 1.4 mM MgCl2, 10 mM EGTA, 10 mM HEPES, 3 mM MgATP (pH 7.2). The osmolarities of the extracellular and intracellular solutions were 305 and 295 mOsm respectively.
For SyncroPatch experiments, the extracellular recording solution contained: 140 mM NaCl, 4 mM KCl, 2 mM CaCl2), 1 mM MgCl2, 10 mM HEPES, 5 mM glucose (pH 7.4 with NaOH and osmolarity of c. 300-310 mOsm). The intracellular recording solution consisted of: 90 mM KCl, 50 mM KF, 1.5 mM MgCl2, 11.1 mM EGTA and 10 mM HEPES (pH 7.2 with KOH and osmolarity of c. 300 mOsm). 2 mM of NaATP was added to the intracellular solution on the day of testing.
The effects of modulators were evaluated in the presence of a submaximal GABA concentration, giving typically less than 30% activation of the response elicited by a saturating GABA concentration. To check and ensure baseline current stability before compound addition, two to five consecutive applications of GABA EC10-20 separated by wash steps were performed before compound addition. The test compound was applied 1 min at least prior to co-application with GABA EC10-20. Following a further wash step, a saturating concentration of GABA was applied at the end of each recording, allowing the accurate evaluation for each cell of the percentage baseline activation elicited by the submaximal GABA applied.
The compounds were first dissolved in DMSO as a 10 mM stock and then further diluted to the testing concentrations so that the final DMSO concentration in the extracellular recording solution was 0.1% (QPatch) or 0.2% (SyncroPatch).
The % efficacy of modulators was determined from the GABA elicited currents recorded in the presence and absence of the test compound, using the formula:
[((compound peak current−leak)−(GABA peak current-leak))/(GABA peak current−leak)]*100,
where ‘leak’ is the leak baseline current at the holding potential, ‘compound peak current’ is the current elicited by co-application of compound and GABA, and ‘GABA peak current’ is the current elicited by GABA alone at the last GABA application before compound addition. The results were presented as ‘relative efficacy’ for each compound generally at a concentration equal or higher than 100 times their determined Ki. The relative efficacy of a compound was calculated by normalising its % efficacy to the corresponding % efficacy of diazepam that was separately determined.

Chain of human α2β3γ2 GABAARs (benzodiazepine site) (P47869 29-451): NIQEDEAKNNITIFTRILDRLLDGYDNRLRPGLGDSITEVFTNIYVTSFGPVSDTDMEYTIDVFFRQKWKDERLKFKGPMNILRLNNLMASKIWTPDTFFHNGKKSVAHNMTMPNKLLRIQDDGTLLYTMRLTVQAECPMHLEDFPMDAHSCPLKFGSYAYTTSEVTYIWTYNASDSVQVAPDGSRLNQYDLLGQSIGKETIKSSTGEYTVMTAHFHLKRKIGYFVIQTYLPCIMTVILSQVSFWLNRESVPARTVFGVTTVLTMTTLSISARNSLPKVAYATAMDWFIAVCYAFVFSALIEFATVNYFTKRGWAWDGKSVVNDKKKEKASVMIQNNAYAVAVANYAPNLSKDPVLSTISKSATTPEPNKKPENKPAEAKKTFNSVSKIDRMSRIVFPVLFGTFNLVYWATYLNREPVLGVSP
Chain of human α2β3γ2 GABAARs (benzodiazepine site) (P28472 26-473 partner): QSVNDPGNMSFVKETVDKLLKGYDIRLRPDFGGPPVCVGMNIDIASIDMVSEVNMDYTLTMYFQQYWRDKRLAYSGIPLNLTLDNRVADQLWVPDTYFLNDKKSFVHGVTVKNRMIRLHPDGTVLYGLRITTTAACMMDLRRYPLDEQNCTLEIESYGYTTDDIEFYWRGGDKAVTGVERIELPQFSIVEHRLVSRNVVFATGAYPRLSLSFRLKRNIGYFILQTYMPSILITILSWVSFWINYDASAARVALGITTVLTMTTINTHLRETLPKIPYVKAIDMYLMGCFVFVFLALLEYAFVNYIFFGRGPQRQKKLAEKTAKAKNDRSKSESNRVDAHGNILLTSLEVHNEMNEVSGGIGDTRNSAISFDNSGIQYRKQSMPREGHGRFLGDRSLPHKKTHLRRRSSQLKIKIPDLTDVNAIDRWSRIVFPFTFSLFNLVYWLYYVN
Chain of human α2β3γ2 GABAARs (benzodiazepine site) (P18507 40-475): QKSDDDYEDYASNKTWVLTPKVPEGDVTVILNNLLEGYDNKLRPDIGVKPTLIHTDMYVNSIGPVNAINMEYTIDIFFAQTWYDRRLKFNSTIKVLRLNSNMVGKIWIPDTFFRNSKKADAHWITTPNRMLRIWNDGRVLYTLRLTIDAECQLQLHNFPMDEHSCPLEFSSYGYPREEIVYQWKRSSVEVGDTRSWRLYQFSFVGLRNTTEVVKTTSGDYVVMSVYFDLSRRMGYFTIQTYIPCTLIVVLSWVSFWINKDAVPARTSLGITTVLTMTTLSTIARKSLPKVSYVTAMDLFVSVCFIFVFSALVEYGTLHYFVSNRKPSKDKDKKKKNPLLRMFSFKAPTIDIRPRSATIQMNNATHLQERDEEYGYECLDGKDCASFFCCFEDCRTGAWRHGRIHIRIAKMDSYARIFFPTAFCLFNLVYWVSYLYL

CCCNC(=O)c1c(N)c2cccc(-c3cncc(C)n3)c2[nH]c1=O [Example 46, 4-Amino-8-(6-methylpyrazin-2-yl)-2-oxo-N-propyl-1,2-dihydroquinoline-3-carboxamide]
Ki [1]: 2.37 nM
α2-GABAAR Relative Efficacy (vs. Diazepam) (human α2β3γ2 GABAARs): 0.02

CCCNC(=O)c1c(N)c2cccc(-c3cncc(OC)n3)c2[nH]c1=O [Example 47, 4-Amino-8-(6-methoxypyrazin-2-yl)-2-oxo-N-propyl-1,2-dihydroquinoline-3-carboxamide]
Ki [1]: 0.23 nM
α2-GABAAR Relative Efficacy (vs. Diazepam) (human α2β3γ2 GABAARs): 0.08

CCCNC(=O)c1c(N)c2cccc(-c3cccc(OC)c3)c2[nH]c1=O [Example 48, 4-Amino-8-(3-methoxyphenyl)-2-oxo-N-propyl-1H-quinoline-3-carboxamide]
Ki [1]: 1.84 nM
α2-GABAAR Relative Efficacy (vs. Diazepam) (human α2β3γ2 GABAARs): 0.39

CCCNC(=O)c1c(N)c2cccc(-c3cc(OC)ccc3F)c2[nH]c1=O [Example 49, 4-Amino-8-(2-fluoro-5-methoxy-phenyl)-2-oxo-N-propyl-1H-quinoline-3-carboxamide]
Ki [1]: 0.43 nM
α2-GABAAR Relative Efficacy (vs. Diazepam) (human α2β3γ2 GABAARs): 0.26

CCCNC(=O)c1c(N)c2cccc(-c3c(F)cccc3F)c2[nH]c1=O [Example 50, 4-Amino-8-(2,6-difluorophenyl)-2-oxo-N-propyl-1H-quinoline-3-carboxamide]
Ki [1]: 0.21 nM
α2-GABAAR Relative Efficacy (vs. Diazepam) (human α2β3γ2 GABAARs): 0.34

CCCNC(=O)c1c(N)c2cccc(-c3c(C)noc3C)c2[nH]c1=O [Example 54, 4-Amino-8-(3,5-dimethylisoxazol-4-yl)-2-oxo-N-propyl-1H-quinoline-3-carboxamide]
Ki [1]: 20 nM
α2-GABAAR Relative Efficacy (vs. Diazepam) (human α2β3γ2 GABAARs): 0.07

CCNC(=O)c1c(N)c2cccc(-c3cnccc3OC)c2[nH]c1=O [Example 56, 4-Amino-N-ethyl-8-(4-methoxy-3-pyridyl)-2-oxo-1H-quinoline-3-carboxamide]
Ki [1]: 6.62 nM
α2-GABAAR Relative Efficacy (vs. Diazepam) (human α2β3γ2 GABAARs): 0.34

COc1ccncc1-c1cccc2c(N)c(C(=O)NCC3CC3)c(=O)[nH]c12 [Example 59, 4-Amino-N-(cyclopropylmethyl)-8-(4-methoxy-3-pyridyl)-2-oxo-1H-quinoline-3-carboxamide]
Ki [1]: 2.01 nM
α2-GABAAR Relative Efficacy (vs. Diazepam) (human α2β3γ2 GABAARs): 0.27

COc1ccncc1-c1cccc2c(N)c(C(=O)NCC(C)C)c(=O)[nH]c12 [Example 60, 4-Amino-N-isobutyl-8-(4-methoxy-3-pyridyl)-2-oxo-1H-quinoline-3-carboxamide]
Ki [1]: 15.4 nM
α2-GABAAR Relative Efficacy (vs. Diazepam) (human α2β3γ2 GABAARs): 0.65

COCCNC(=O)c1c(N)c2cccc(-c3cnccc3OC)c2[nH]c1=O [Example 63, 4-Amino-N-(2-methoxyethyl)-8-(4-methoxy-3-pyridyl)-2-oxo-1H-quinoline-3-carboxamide]
Ki [1]: 24.5 nM
α2-GABAAR Relative Efficacy (vs. Diazepam) (human α2β3γ2 GABAARs): 0.65

COc1ccncc1-c1cccc2c(N)c(C(=O)NCCO)c(=O)[nH]c12 [Example 64, 4-Amino-N-(2-hydroxyethyl)-8-(4-methoxy-3-pyridyl)-2-oxo-1H-quinoline-3-carboxamide]
Ki [1]: 84.6 nM
α2-GABAAR Relative Efficacy (vs. Diazepam) (human α2β3γ2 GABAARs): 0.34

COc1ccncc1-c1cccc2c(N)c(C(=O)NCCCF)c(=O)[nH]c12 [Example 67, 4-Amino-N-(3-fluoropropyl)-8-(4-methoxy-3-pyridyl)-2-oxo-1H-quinoline-3-carboxamide]
Ki [1]: 3.74 nM
α2-GABAAR Relative Efficacy (vs. Diazepam) (human α2β3γ2 GABAARs): 0.54

COc1ccncc1-c1cccc2c(N)c(C(=O)NCCC(F)F)c(=O)[nH]c12 [Example 68, 4-Amino-N-(3,3-difluoropropyl)-8-(4-methoxy-3-pyridyl)-2-oxo-1H-quinoline-3-carboxamide]
Ki [1]: 4.88 nM
α2-GABAAR Relative Efficacy (vs. Diazepam) (human α2β3γ2 GABAARs): 0.54

Cc1nn(C)cc1-c1cccc2c(N)c(C(=O)NCCC(F)(F)F)c(=O)[nH]c12 [Example 73, 4-Amino-8-(1,3-dimethylpyrazol-4-yl)-2-oxo-N-(3,3,3-trifluoropropyl)-1H-quinoline-3-carboxamide]
Ki [1]: 3.08 nM
α2-GABAAR Relative Efficacy (vs. Diazepam) (human α2β3γ2 GABAARs): 0.48

CCCNC(=O)c1c(N)c2cccc(-c3cccnc3OC)c2n(C)c1=O [Example 76, 4-Amino-8-(2-methoxy-3-pyridyl)-1-methyl-2-oxo-N-propyl-quinoline-3-carboxamide]
Ki [1]: 6.23 nM
α2-GABAAR Relative Efficacy (vs. Diazepam) (human α2β3γ2 GABAARs): 0.42

COc1ccncc1-c1cccc2c(N)c(C(=O)NCC3CC3)c(=O)n(C)c12 [Example 78, 4-Amino-N-(cyclopropylmethyl)-8-(4-methoxy-3-pyridyl)-1-methyl-2-oxo-quinoline-3-carboxamide]
Ki [1]: 2.11 nM
α2-GABAAR Relative Efficacy (vs. Diazepam) (human α2β3γ2 GABAARs): 0.70

COc1ccncc1-c1cccc2c(N)c(C(=O)NCC(C)C)c(=O)n(C)c12 [Example 79, 4-Amino-N-isobutyl-8-(4-methoxy-3-pyridyl)-1-methyl-2-oxo-quinoline-3-carboxamide]
Ki [1]: 2.51 nM
α2-GABAAR Relative Efficacy (vs. Diazepam) (human α2β3γ2 GABAARs): 0.81

CCCNC(=O)c1c(N)c2cccc(-c3cn(C)nc3C)c2n(C)c1=O [Example 80, 4-Amino-8-(1,3-dimethylpyrazol-4-yl)-1-methyl-2-oxo-N-propyl-quinoline-3-carboxamide]
Ki [1]: 4.44 nM
α2-GABAAR Relative Efficacy (vs. Diazepam) (human α2β3γ2 GABAARs): 0.6

Cc1nn(C)cc1-c1cccc2c(N)c(C(=O)NCC3CC3)c(=O)n(C)c12 [Example 81, 4-Amino-N-(cyclopropylmethyl)-8-(1,3-dimethylpyrazol-4-yl)-1-methyl-2-oxo-quinoline-3-carboxamide]
Ki [1]: 2.19 nM
α2-GABAAR Relative Efficacy (vs. Diazepam) (human α2β3γ2 GABAARs): 0.81

Cc1nn(C)cc1-c1cccc2c(N)c(C(=O)NCC(C)C)c(=O)n(C)c12 [Example 82, 4-Amino-8-(1,3-dimethylpyrazol-4-yl)-N-isobutyl-1-methyl-2-oxo-quinoline-3-carboxamide]
Ki [1]: 6.66 nM
α2-GABAAR Relative Efficacy (vs. Diazepam) (human α2β3γ2 GABAARs): 0.31
